In patent US20220249431A1, “ANTIMYCOTIC” (Karl-Franzens-Universität Graz, priority 2019, published 2022):
In brackets after ≈: the same amount, converted by molar mass. Read-outs that look alike come from different tables or passages of the source. Each block holds one compound with its values, some of them ahead of it.

How the values were obtained:
[1] = system: C. glabrata; assay: Minimal inhibitory concentration, planktonic cells (CLSI M27); type: cell-based, Candida glabrata; settings: Nakaseomyces glabratus, growth reduced to 50% of untreated control
Description: (§1) The minimal inhibitory concentration (MIC) was determined following the standard Clinical and Laboratory Standards Institute (CLSI) protocol M27 (Rex JH, and Clinical and Laboratory Standards Institute (2008). Reference method for broth dilution antifungal susceptibility testing of yeasts: approved standard, 3rd ed. National Committee for Clinical Laboratory Standards, Wayne, Pa.) for yeast strains or the standard CLSI protocol […] (Clinical and Laboratory Standards Institute (2008). Reference method for broth dilution antifungal susceptibility testing of filamentous fungi. Clinical and Laboratory Standards Institute, Wayne, Pa.) for filamentous fungi. For yeast strains media was inoculated with an overnight culture to an OD600 of 0.001 (1^04 cells/mL). Serial dilutions of substances were added and cells were incubated at 37° C. without shaking for 48±1 h. MIC tests were performed in flat-bottom 96 well plates (Greiner Bio One, Austria) using 100 μL suspension per well sealed with gas-permeable foils. After incubation, OD490 values were measured using 96-well plate reader and growth capacity was analyzed by setting the corresponding control to 100%. Different flavones were randomly chosen and tested for their effects on planktonic cells and biofilms of C. albicans and C. glabrata to determine corresponding IC50 values (the concentration that is required to reduce growth (minimal inhibitory concentration=MIC) or biofilm formation (biofilm inhibitory concentration=BIC) to 50% compared to the untreated control).

[2] = system: C. glabrata biofilm; assay: Biofilm inhibition concentration (XTT); type: cell-based, Candida glabrata; settings: Nakaseomyces glabratus, read-out: BIC50
Description: (§2) In short, RPMI medium was inoculated with an overnight culture to an OD (optical density) of 0.1, transferred to a U-bottom 96-well plate (MLS, Belgium) and treated with serial dilutions of substances. After the adherence phase (1 h, 37° C.), supernatant was removed, adherent cells were washed with PBS and fresh media (including substances) was added. Biofilms were then allowed to grow for 24 h at 37° C. Formed biofilms were then analyzed for their metabolic activity. Therefore, C. albicans biofilm cells were treated with CTB (cell titer Blue®; Promega, Germany), diluted 1:100 in PBS. […] Sigma, Germany or ABCR, Germany) was used instead. Thereby, biofilm cells were treated with an XTT solution (0.25 mg/mL XTT+0.1 μM menadione in PBS) at 37° C. in the dark and OD490 was measured.

[3] = system: C. albicans; assay: Minimal inhibitory concentration, planktonic cells (CLSI M27); type: cell-based; settings: Candida albicans, growth reduced to 50% of untreated control
Description: as §1

[4] = system: C. albicans biofilm; assay: Biofilm inhibition concentration (CTB staining); type: cell-based; settings: Candida albicans; C. albicans biofilm formation reduced to 50% of untreated control; read-out: BIC50
Description: as §2, with “The biofilm inhibition concentration (BIC) was determined as described in […] et al. (J Antimicrob Chemother 69(2014): 1035-1044). In” for “In”, “PBS. After incubation for 1 h at 37° C. in the dark fluorescence intensity was measured using a 96-well plate reader (Ex: 535, Em: 590, sens 65).” for “PBS.”, “measured. As for MIC, biofilm inhibition was analyzed by setting the corresponding control to 100%. Different flavones were randomly chosen and tested for their effects on planktonic cells and biofilms of C. albicans and C. glabrata to determine corresponding IC50 values (the concentration that is required to reduce growth (minimal inhibitory concentration=MIC) or biofilm formation (biofilm inhibitory concentration=BIC) to 50% compared to the untreated control).” for “measured.”

[5] = system: C. albicans SC5314; assay: C. elegans infection model, worm survival; type: in vivo
Description: The C. elegans Δglp-4 Δsek-1 strain (generously provided by Valerie Defraine, Centre of Microbial and Plant Genetics, KU Leuven, Belgium) was used for in vivo testing of antifungal activity. Worms were maintained on NGM plates (nematode growth medium; 2.5 g/L Bacto Peptone, 3 g/L NaCl, 17 g/L agar, supplemented with 5 mg/L cholesterol, 1 mM CaCl2), 1 mM MgSO4 and 25 mM KPO4 buffer pH 6.0), seeded with a thin layer of E. coli OP50, at 16° C. and worms were chunked onto fresh plates every three to four days.
Egg collecting was performed by bleaching according to Stiernagle T (“Maintenance of C. elegans”. WormBook. doi: 10.1895/wormbook.1.101 (2006)) and Porta-de-la-Riva M et al. JoVE 64(2012): e4019-e4019). In short, adult worms were collected from plates and treated with a bleaching solution (10 mL household bleach+5 mL 5M NaOH), thereby worms disintegrate and eggs are released. After vigorous shaking for 5 min, M9 medium (3 g/L KH2PO4, 6 g/L Na2HPO4, 5 g/L NaCl, supplemented with 1.25 mM MgSO4) was added and worms were immediately put on ice. After three washing steps, residual eggs were incubated in M9 medium over night at 16° C. on a tube roller. The next day, eggs were collected, transferred onto fresh NGM/OP50 plates and incubated at 25° C. for 3-4 days until nematodes have reached the L3/L4 stage prior to infection.
Synchronized (L3/L4 stage) worms were collected, washed three times with M9 media and spotted onto prepared YPD plates with a thin layer of C. albicans SC5314. […]
For efficacy testing of compounds, 750 μL of the worm suspension were transferred into each well of a 24-well plate and substances were added at indicated concentrations (1% DMSO). Nematodes were immediately counted (t0) and survival was monitored over five days post infection by counting living worms.
To verify the antifungal potential of DHF in vivo, the well-established C. elegans infection model (Breger J, et al. (2007) PLOS Pathog. 3(2): e18.) was used. […] Survival of infected as well as non-infected nematodes was monitored daily over the time period of 5 days (FIG. 2A). […]

[6] = system: C. albicans; assay: Checkerboard / combination assay, growth of planktonic cells (OD490); type: cell-based, Candida albicans; settings: for antimycotic effect in combination with other known antimycotics: FIGS. 6 and 7; for effect on antifungal activity of azole antifungals (growth, OD490): flavone 6.25-25 μM with 0.1 μM miconazole or 1 μM fluconazole
Description: The minimal inhibitory concentration (MIC) was determined following the standard Clinical and Laboratory Standards Institute (CLSI) protocol M27 (Rex JH, and Clinical and Laboratory Standards Institute (2008). Reference method for broth dilution antifungal susceptibility testing of yeasts: approved standard, 3rd ed. National Committee for Clinical Laboratory Standards, Wayne, Pa.) for yeast strains or the standard CLSI protocol M38 (Clinical and Laboratory Standards Institute (2008). Reference method for broth dilution antifungal susceptibility testing of filamentous fungi. Clinical and Laboratory Standards Institute, Wayne, Pa.) for filamentous fungi.
For yeast strains media was inoculated with an overnight culture to an OD600 of 0.001 (1^04 cells/mL). Serial dilutions of substances were added and cells were incubated at 37° C. without shaking for 48±1 h.
MIC tests were performed in flat-bottom 96 well plates (Greiner Bio One, Austria) using 100 μL suspension per well sealed with gas-permeable foils. After incubation, OD490 values were measured using 96-well plate reader and growth capacity was analyzed by setting the corresponding control to 100%.
For synergy testing of different combinations, checkerboard assays were performed. Therefore, serial dilutions of two different compounds were combined for MIC, BIC or BEC testing as described above. Antifungal activity of substances alone or in combination was determined by setting the corresponding control to 100%.

[7] = system: C. albicans biofilms; assay: Checkerboard assay, biofilm inhibition (CTB staining); type: cell-based, Candida albicans
Description: The biofilm inhibition concentration (BIC) was determined as described in Delattin N et al. (J Antimicrob Chemother 69(2014): 1035-1044). In short, RPMI medium was inoculated with an overnight culture to an OD (optical density) of 0.1, transferred to a U-bottom 96-well plate (MLS, Belgium) and treated with serial dilutions of substances. After the adherence phase (1 h, 37° C.), supernatant was removed, adherent cells were washed with PBS and fresh media (including substances) was added. Biofilms were then allowed to grow for 24 h at 37° C.
Formed biofilms were then analyzed for their metabolic activity. Therefore, C. albicans biofilm cells were treated with CTB (cell titer Blue®; Promega, Germany), diluted 1:100 in PBS. After incubation for 1 h at 37° C. in the dark fluorescence intensity was measured using a 96-well plate reader (Ex: 535, Em: 590, sens 65). For C. glabrata, XTT (2H-Tetrazolium, 2,3-bis(2-methoxy-4-nitro-5-sulfophenyl)-5-[(phenylamino)carbonyl]-hydroxide; Sigma, Germany or ABCR, Germany) was used instead. Thereby, biofilm cells were treated with an XTT solution (0.25 mg/mL XTT+0.1 μM menadione in PBS) at 37° C. in the dark and OD490 was measured.
For synergy testing of different combinations, checkerboard assays were performed. […] Antifungal activity of substances alone or in combination was determined by setting the corresponding control to 100%.

[8] = C. glabrata biofilm formation reduced to 50% of untreated control

Compound: O=c1c(O)c(-c2cccc(O)c2)oc2ccccc12 [3,3′-dihydroxyflavone]
MIC50 [3]: 254 ± 68.5 µM (≈ 64.7 µg/mL)
MIC50 [1]: 5.9 ± 0.1 µM (≈ 1.5 µg/mL)
IC50 [2, 8]: 21.5 ± 3.6 µM

Compound: O=c1c(O)c(-c2ccccc2)oc2cc(O)ccc12 [3,7-dihydroxyflavone]
IC50 [2]: 62.5 ± 26 µM

Compound: O=c1c(O)c(-c2ccccc2)oc2ccccc12 [3-hydroxyflavone]
MIC50 [1]: 6.2 ± 0.2 µM (≈ 1.48 µg/mL)

Compound: O=c1cc(-c2ccc(O)c(O)c2)oc2cc(O)ccc12 [3′,4′,7-trihydroxyflavone]
antimycotic effect in combination with other known antimycotics [6]: synergistic antimycotic effect
effect on antifungal activity of azole antifungals (growth, OD490) [6]: enhance the antifungal activity of azole antifungals

Compound: O=c1cc(-c2ccccc2)oc2cc(O)c(O)cc12 [6,7-dihydroxyflavone]
MIC50 [1]: 15.7 ± 4.1 µM (≈ 3.99 µg/mL)
IC50 [2, 8]: 41.7 ± 9.1 µM

Compound: O=c1cc(-c2ccccc2)oc2cc(O)ccc12 [7-hydroxyflavone]
IC50 [2]: 17.4 ± 7 µM

Compound: O=c1cc(-c2ccc(O)c(O)c2)oc2cc(O)cc(O)c12 [luteolin, 3′,4′,5,7-tetrahydroxyflavone]
antimycotic effect in combination with other known antimycotics [6]: synergistic antimycotic effect
effect on antifungal activity of azole antifungals (growth, OD490) [6]: enhance the antifungal activity of azole antifungals

Second part, led by results:

MIC50 [1]: 53.9 ± 2.1 µM (≈ 13.7 µg/mL)
IC50 [2, 8]: 124 ± 34.7 µM
Compound: O=c1c(O)c(-c2ccccc2O)oc2ccccc12 [2′,3-dihydroxyflavone]

MIC50 [3]: 9.5 ± 0.1 µM (≈ 2.42 µg/mL)
IC50 [4]: 55.2 ± 8.1 µM
MIC50 [1]: 7.9 ± 1 µM (≈ 2.01 µg/mL)
Compound: O=c1c(O)c(-c2ccccc2)oc2ccc(O)cc12 [3,6-dihydroxyflavone]
IC50 [2, 8]: 23.4 ± 9.7 µM
effect on activity of azoles in vivo (worm survival) ([5]; 25 μM 3,6-DHF with 0.125 μM miconazole or 0.5 μM fluconazole, 5 days): enhances the activity of azoles
effect on antifungal activity of AMB in vivo (worm survival) ([5]; 25 μM 3,6-DHF with 0.5 μM AMB, 5 days): enhances the antifungal activity of AMB
worms still alive at day 5 post infection ([5]; 50 μM DHF, single application immediately after infection, infected control 20.5%): 45.7%
effect on activity of caspofungin, growth of planktonic cells ([6]; 4.9 nM Caspo, 5 μM 3,6-DHF, preliminary data): enhances the activity of Caspofungin
effect on activity of azoles in vitro (growth inhibition) ([6]; 3.1 μM 3,6-DHF with 0.4 μM miconazole or 0.5 μM fluconazole): enhances the activity of azoles
effect on activity of caspofungin, biofilm formation ([7]; 39 nM Caspo, 3.1 μM 3,6-DHF): enhances the activity of Caspofungin
combination with AMB on biofilms in vitro ([7]; 0.16 μM AMB, 25 μM 3,6-DHF): acts synergistically with AMB

IC50 [4]: 147 ± 17.3 µM
Compound: O=c1cc(-c2ccc(O)c(O)c2)oc2ccccc12 [3′,4′-dihydroxyflavone]
effect on antifungal activity of antimycotics (growth, OD490) ([6]; 12.5-25 μM 3′,4′-DHF with miconazole, fluconazole, ketoconazole or clotrimazole): enhances the antifungal activity of antimycotics
antimycotic effect in combination with other known antimycotics [6]: synergistic antimycotic effect

IC50 [2, 8]: 26.7 ± 3 µM
Compound: O=c1cc(-c2cccc(O)c2)oc2ccccc12 [3′-hydroxyflavone]

MIC50 [3]: > 400 µM
IC50 [4]: > 400 µM
MIC50 [1]: > 400 µM
IC50 [2, 8]: > 400 µM
Compound: O=c1cc(-c2ccc(O)cc2)oc2cccc(O)c12 [4′,5-dihydroxyflavone, reference compound]

MIC50 [3]: > 400 µM
IC50 [4]: > 400 µM
MIC50 [1]: > 400 µM
IC50 [2, 8]: > 400 µM
Compound: O=c1cc(-c2ccccc2)oc2cc(O)cc(O)c12 [5,7-dihydroxyflavone, reference compound]

IC50 [2, 8]: 129 ± 14.2 µM
Compound: O=c1cc(-c2ccccc2)oc2ccc(O)cc12 [6-hydroxyflavone]
